# Key:
# Assay in all cases: relative viability (nuclei count vs DMSO), 5 days (fraction); higher = more cells survive
# PC-14 = test system: PC-14
# Summary of the method: (§1)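 After 5 days of treatment, lung cancer cells in 1536-well plates were fixed and stained in a single step (final 0.05% Triton X-100, 1% formaldehyde, 1 ug/ml Hoechst) and their nuclei counted on 4× images. Treatment had been applied by pin tool the day after seeding as one drug alone or as a fixed anchor-drug dose with five library-drug doses (not always all listed) in √10 steps. Relative viability is the nuclei count of treated wells divided by that of vehicle wells, and values are medians of duplicate plates.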
# NCI-H1734 = test system: NCI-H1734
# Summary of the method: as §1
# COR-L23 = test system: COR-L23
# Summary of the method: as §1
# SW 1573 = test system: SW 1573
# Summary of the method: as §1
# NCI-H1355 = test system: NCI-H1355
# Summary of the method: as §1
# NCI-H661 = test system: NCI-H661
# Summary of the method: as §1
# NCI-H322M = test system: NCI-H322M
# Summary of the method: as §1
# H3255 = test system: H3255
# Summary of the method: as §1
# ABC-1 = test system: ABC-1
# Summary of the method: as §1
# NCI-H2405 = test system: NCI-H2405
# Summary of the method: as §1
# NCI-H2228 = test system: NCI-H2228
# Summary of the method: as §1
smiles,measurement,setting,value
C=C1C(=O)O[C@@H](CCCCCCCC)[C@@H]1C(=O)O [C-75] + C[C@@H](Oc1cc(-c2cnn(C3CCNCC3)c2)cnc1N)c1c(Cl)ccc(F)c1Cl [Crizotinib] (partner 1 µM),relative viability,PC-14; first compound 0.08 µM,0.836
same,relative viability,PC-14; first compound 0.253 µM,0.905
same,relative viability,PC-14; first compound 0.8 µM,0.893
same,relative viability,PC-14; first compound 2.53 µM,0.741
same,relative viability,PC-14; first compound 8 µM,0.998
same,relative viability,NCI-H1734; first compound 0.08 µM,0.692
same,relative viability,NCI-H1734; first compound 0.253 µM,0.624
same,relative viability,NCI-H1734; first compound 0.8 µM,0.618
same,relative viability,NCI-H1734; first compound 2.53 µM,0.557
same,relative viability,NCI-H1734; first compound 8 µM,0.69
same,relative viability,COR-L23; first compound 0.08 µM,0.669
same,relative viability,COR-L23; first compound 0.253 µM,0.613
same,relative viability,COR-L23; first compound 0.8 µM,0.57
same,relative viability,COR-L23; first compound 2.53 µM,0.703
same,relative viability,COR-L23; first compound 8 µM,0.642
same,relative viability,SW 1573; first compound 0.08 µM,0.812
same,relative viability,SW 1573; first compound 0.253 µM,0.842
same,relative viability,SW 1573; first compound 0.8 µM,0.768
same,relative viability,SW 1573; first compound 2.53 µM,0.809
same,relative viability,SW 1573; first compound 8 µM,0.754
same,relative viability,NCI-H1355; first compound 0.08 µM,1.05
same,relative viability,NCI-H1355; first compound 0.253 µM,1.01
same,relative viability,NCI-H1355; first compound 0.8 µM,0.97
same,relative viability,NCI-H1355; first compound 2.53 µM,1.1
same,relative viability,NCI-H1355; first compound 8 µM,1.01
same,relative viability,NCI-H661; first compound 0.08 µM,1.1
same,relative viability,NCI-H661; first compound 0.253 µM,1.02
same,relative viability,NCI-H661; first compound 0.8 µM,1.04
same,relative viability,NCI-H661; first compound 2.53 µM,0.933
same,relative viability,NCI-H661; first compound 8 µM,1.09
same,relative viability,NCI-H322M; first compound 0.08 µM,0.977
same,relative viability,NCI-H322M; first compound 0.253 µM,1.19
same,relative viability,NCI-H322M; first compound 0.8 µM,0.919
same,relative viability,NCI-H322M; first compound 2.53 µM,0.971
same,relative viability,NCI-H322M; first compound 8 µM,0.973
same,relative viability,H3255; first compound 0.08 µM,0.909
same,relative viability,H3255; first compound 0.253 µM,0.932
same,relative viability,H3255; first compound 0.8 µM,0.875
same,relative viability,H3255; first compound 2.53 µM,0.841
same,relative viability,H3255; first compound 8 µM,0.843
same,relative viability,ABC-1; first compound 0.08 µM,1.29
same,relative viability,ABC-1; first compound 0.253 µM,1.81
same,relative viability,ABC-1; first compound 0.8 µM,0.998
same,relative viability,ABC-1; first compound 2.53 µM,0.909
same,relative viability,ABC-1; first compound 8 µM,0.882
same,relative viability,NCI-H2405; first compound 0.08 µM,0.825
same,relative viability,NCI-H2405; first compound 0.253 µM,0.683
same,relative viability,NCI-H2405; first compound 0.8 µM,0.796
same,relative viability,NCI-H2405; first compound 2.53 µM,0.785
same,relative viability,NCI-H2405; first compound 8 µM,0.868
same,relative viability,NCI-H2228; first compound 0.08 µM,0.548
same,relative viability,NCI-H2228; first compound 0.253 µM,0.472
same,relative viability,NCI-H2228; first compound 0.8 µM,0.412
same,relative viability,NCI-H2228; first compound 2.53 µM,0.438
same,relative viability,NCI-H2228; first compound 8 µM,0.596
